Measurements published in EP1156056A1, “5-GLYCOSYLOXY-6-HYDROXYNAPHTHO 2,3-f]QUINOLINE-7,12-DIONE HAVING ANTICANCER ACTIVITIES” (ZAIDAN HOJIN BISEIBUTSU KAGAKU KENKYU KAI, priority 1999, dated 2000).
Converted amounts (≈) assume the structure as drawn. Where two headings read alike, the source gives them in different places.

Tests used:
[1] = tested on: human esophageal carcinoma (TT); test: Inhibition of proliferation of cancer cells in culture (Test Example 1); assay type: cell-based; details: 72 hours cultivation, read-out: Concentration of test compound to inhibit the proliferation of cancer cells by 50 %
Description: (§1) A culture medium for cancer cells was put into test tubes. To the culture medium in each tube, there was transplanted each of such various mouse cancer cells or human cancer cells as shown in Table 1 below. The cells so transplanted were cultivated under the conditions at 37°C in an air atmosphere containing 5 % CO2. To the medium containing the cancer cells so cultivated, there was added said Compounds A, B, D, E or F of this invention at different concentrations, as the test compound. […] As the comparative compound, adriamycin now clinically used was tested to repeat the test in the same way.
(§2) Namely, they are mouse colon cancer (colon 26), mouse B-cell lymphoma (LB32T), mouse lymphoma (L-1210), human cervical cancer (HeLa), human acute promyeloleukemia (HL60), human prostatic cancer (PC3), human pudendal squamous cell carcinoma (A431), human pulmonary carcinoma (PC6), human mastocarcinoma (MCF7), human esophageal carcinoma (TT), human prostatic cancer (LNcap) and human colon cancer (DLD-1).

[2] = tested on: human pulmonary carcinoma (PC6); test: as above; assay type: cell-based; details: 72 hours cultivation, read-out: Concentration of test compound to inhibit the proliferation of cancer cells by 50 %
Description: as §1, §2

[3] = tested on: human mastocarcinoma (MCF7); test: as above; assay type: cell-based; details: 72 hours cultivation, read-out: Concentration of test compound to inhibit the proliferation of cancer cells by 50 %
Description: as §1, §2

[4] = tested on: human pudendal squamous cell carcinoma (A431); test: as above; assay type: cell-based; details: A-431, 72 hours cultivation, read-out: Concentration of test compound to inhibit the proliferation of cancer cells by 50 %
Description: as §1, §2

[5] = tested on: human acute promyeloleukemia (HL60); test: Inhibition of proliferation of cancer cells in culture (Test Examples 1 and 3); assay type: cell-based
Description: as §1, §2
(§3) The test method and the nature of cancer cells to be tested are the same as those in Test Example 1 given hereinbefore. In this Test Example 3, however, eight kinds of cancer cells indicated in Table 3 below are used, among the twelve kinds of cancer cells which were used in Test Example 1.
(§4) As the test results of measurement, the evaluated values of the concentration of each test compound which could inhibit the proliferation of cancer cells by 50 % (namely, 50 % inhibitory concentration:IC50, µg/ml) are given in Table 3.

[6] = tested on: human cervical cancer (HeLa); test: as above; assay type: cell-based
Description: as §1, §2, §3, §4

[7] = tested on: mouse B-cell lymphoma (LB32T); test: as above; assay type: cell-based
Description: as §1, §2, §3, §4

[8] = tested on: human colon cancer (DLD-1); test: as above; assay type: cell-based; details: for IC50: Homo sapiens; for anticancer activities against DLD-1, times higher than those of adriamycin: Test Example 1, relative to adriamycin
Description: as §1, §2, §3, §4

mouse lymphoma (L-1210) = test: as above; assay type: cell-based
Description: as §1, §2, §3, §4

[9] = tested on: human prostatic cancer (LNcap); test: as above; assay type: cell-based
Description: as §1, §2, §3, §4

[10] = tested on: mouse colon cancer (colon 26); test: as above; assay type: cell-based
Description: as §1, §2, §3, §4

[11] = tested on: human prostatic cancer (PC3); test: as above; assay type: cell-based; details: for IC50: Homo sapiens; for anticancer activities against PC3, times higher than those of adriamycin: Test Example 1, relative to adriamycin
Description: as §1, §2, §3, §4

ICR mice = test: Acute toxicity in mice, survival after intraperitoneal administration (Test Example 2); details: ICR, mouse, in vivo, ip, 14 days
Description: In this Test Example, the acute toxicity of Compound A of this invention as administered to mice was evaluated. […] By way of comparison, similar test was carried out with adriamycin (in the form of hydrochloride) .

[12] = HL-60, 72 hours cultivation, Test Example 1, read-out: Concentration of test compound to inhibit the proliferation of cancer cells by 50 %, IC50
[13] = 72 hours cultivation, Test Example 1, read-out: Concentration of test compound to inhibit the proliferation of cancer cells by 50 %, IC50
[14] = L1210, 72 hours cultivation, Test Example 1, read-out: Concentration of test compound to inhibit the proliferation of cancer cells by 50 %, IC50
[15] = LNcap, 72 hours cultivation, Test Example 1, read-out: Concentration of test compound to inhibit the proliferation of cancer cells by 50 %, IC50
[16] = colon26, 72 hours cultivation, Test Example 1, read-out: Concentration of test compound to inhibit the proliferation of cancer cells by 50 %, IC50
[17] = HL-60, Test Example 3, Compounds N to T used as trifluoroacetate, read-out: IC50
[18] = Test Example 3, Compounds N to T used as trifluoroacetate, read-out: IC50
[19] = L1210, Test Example 3, Compounds N to T used as trifluoroacetate, read-out: IC50
[20] = LNCap, Test Example 3, Compounds N to T used as trifluoroacetate, read-out: IC50
[21] = Colon26, Test Example 3, Compounds N to T used as trifluoroacetate, read-out: IC50

IC50 [1]	IC50 [2]	IC50 [3]	IC50 [4]	IC50 [5, 12]	IC50 [6, 13]	IC50 [7, 13]	IC50 [8, 13]	IC50 (mouse lymphoma (L-1210); [14])	IC50 [9, 15]	IC50 [10, 16]	IC50 [11, 13]	IC50 [5, 17]	IC50 [6, 18]	IC50 [7, 18]	IC50 [8, 18]	IC50 (mouse lymphoma (L-1210); [19])	IC50 [9, 20]	SMILES	anticancer activities against PC3, times higher than those of adriamycin [11]	anticancer activities against DLD-1, times higher than those of adriamycin [8]	also measured
1.12 µg/mL (≈ 2.55 µM)	1.08 µg/mL (≈ 2.46 µM)	1.26 µg/mL (≈ 2.87 µM)	1.11 µg/mL (≈ 2.53 µM)	0.33 µg/mL (≈ 0.751 µM)	0.16 µg/mL (≈ 0.364 µM)	0.26 µg/mL (≈ 0.592 µM)	0.04 µg/mL (≈ 0.091 µM)	0.54 µg/mL (≈ 1.23 µM)	0.1 µg/mL (≈ 0.228 µM)	0.23 µg/mL (≈ 0.523 µM)	0.08 µg/mL (≈ 0.182 µM)							C[C@@H]1O[C@H](Oc2c(O)c3c(c4cccnc24)C(=O)c2ccccc2C3=O)[C@@H](F)[C@H](O)[C@@H]1O [Compound E, 5-(2,6-dideoxy-2-fluoro-β-L-galactopyranosyloxy)-6-hydroxynaphtho[2,3-f]quinoline-7,12-dione]	11 times		
1.18 µg/mL (≈ 2.69 µM)	1.06 µg/mL (≈ 2.41 µM)	1.24 µg/mL (≈ 2.82 µM)	1.26 µg/mL (≈ 2.87 µM)	0.35 µg/mL (≈ 0.797 µM)	0.45 µg/mL (≈ 1.02 µM)	0.3 µg/mL (≈ 0.683 µM)	0.12 µg/mL (≈ 0.273 µM)	0.47 µg/mL (≈ 1.07 µM)	0.31 µg/mL (≈ 0.706 µM)	0.2 µg/mL (≈ 0.455 µM)	0.11 µg/mL (≈ 0.25 µM)							C[C@@H]1O[C@@H](Oc2c(O)c3c(c4cccnc24)C(=O)c2ccccc2C3=O)[C@@H](F)[C@H](O)[C@@H]1O [Compound D, 5-(2,6-dideoxy-2-fluoro-α-L-galactopyranosyloxy)-6-hydroxynaphtho[2,3-f]quinoline-7,12-dione]	8.2 times	16 times	
												0.6 µg/mL (≈ 1.03 µM)	0.89 µg/mL (≈ 1.53 µM)	0.82 µg/mL (≈ 1.41 µM)	0.46 µg/mL (≈ 0.791 µM)	1.27 µg/mL (≈ 2.18 µM)	1.46 µg/mL (≈ 2.51 µM)	C[C@@H]1O[C@@H](Oc2c(O)c3c(c4cccnc24)C(=O)c2ccccc2C3=O)[C@H](F)[C@H](OC(=O)CCN)[C@@H]1OC(=O)CCN [Compound P, 5-[3,4-di-O-(3-aminopropionyl)-2,6-dideoxy-2-fluoro-α-L-talopyranosyloxy]-6-hydroxynaphtho [2,3-f]quinoline-7,12-dione]			IC50 [10, 21]: 0.91 µg/mL (≈ 1.56 µM); IC50 [11, 18]: 0.55 µg/mL (≈ 0.946 µM)
												1.09 µg/mL (≈ 1.87 µM)	1.7 µg/mL (≈ 2.92 µM)	0.78 µg/mL (≈ 1.34 µM)	0.71 µg/mL (≈ 1.22 µM)	2.09 µg/mL (≈ 3.59 µM)	1.54 µg/mL (≈ 2.65 µM)	C[C@@H]1O[C@@H](Oc2c(O)c3c(c4cccnc24)C(=O)c2ccccc2C3=O)[C@@H](F)[C@H](OC(=O)CCN)[C@@H]1OC(=O)CCN [Compound Q, 5-[3,4-di-O-(3-aminopropionyl)-2,6-dideoxy-2-fluoro-α-L-galactopyranosyloxy]-6-hydroxynaphtho [2,3-f]quinoline-7,12-dione]			IC50 [10, 21]: 1.43 µg/mL (≈ 2.46 µM); IC50 [11, 18]: 0.79 µg/mL (≈ 1.36 µM)
3.46 µg/mL (≈ 7.66 µM)	4.15 µg/mL (≈ 9.19 µM)	2.59 µg/mL (≈ 5.74 µM)	3.33 µg/mL (≈ 7.38 µM)	1.51 µg/mL (≈ 3.34 µM)	1.65 µg/mL (≈ 3.66 µM)		1.13 µg/mL (≈ 2.5 µM)		1.54 µg/mL (≈ 3.41 µM)		1.59 µg/mL (≈ 3.52 µM)							CO[C@H]1[C@H](Oc2c(O)c3c(c4cccnc24)C(=O)c2ccccc2C3=O)O[C@@H](C)[C@@H](O)[C@H]1O [Compound B, 5-(6-deoxy-2-O-methyl-α-L-talopyranosyloxy)-6-hydroxynaphtho[2,3-f]quinoline-7,12-dione]		1.7 times	

SMILES	IC50 [1]	IC50 [2]	IC50 [3]	IC50 [4]	IC50 [5, 12]	IC50 [6, 13]	IC50 [7, 13]	IC50 [8, 13]	IC50 (mouse lymphoma (L-1210); [14])	IC50 [9, 15]	IC50 [10, 16]	IC50 [11, 13]	IC50 [5, 17]	IC50 [6, 18]	IC50 [7, 18]	IC50 [8, 18]	IC50 (mouse lymphoma (L-1210); [19])	IC50 [9, 20]	anticancer activities against PC3, times higher than those of adriamycin [11]	anticancer activities against DLD-1, times higher than those of adriamycin [8]	also measured
C[C@@H]1O[C@@H](Oc2c(O)c3c(c4cccnc24)C(=O)c2ccccc2C3=O)[C@H](F)[C@H](O)[C@@H]1O [Compound A, 5-(2,6-dideoxy-2-fluoro-α-L-talopyranosyloxy)-6-hydroxynaphtho[2,3-f]quinoline-7,12-dione]	3.16 µg/mL (≈ 7.19 µM)	4.34 µg/mL (≈ 9.88 µM)	2.23 µg/mL (≈ 5.08 µM)	3.36 µg/mL (≈ 7.65 µM)	0.36 µg/mL (≈ 0.819 µM)	0.46 µg/mL (≈ 1.05 µM)	0.43 µg/mL (≈ 0.979 µM)	0.12 µg/mL (≈ 0.273 µM)	0.59 µg/mL (≈ 1.34 µM)	0.28 µg/mL (≈ 0.637 µM)	0.32 µg/mL (≈ 0.728 µM)	0.16 µg/mL (≈ 0.364 µM)							5.6 times	16 times	Survival day(s) of respective mice (ICR mice): >14 (all mice) day(s); dosage at which the total number of mice survived for 14 days (ICR mice): 4 mg/mouse
